Here are results for one sequence from patent US12286632B2, “Rationally-designed synthetic peptide shuttle agents for delivering polypeptide cargos from an extracellular space to the cytosol and/or nucleus of a target eukaryotic cell, uses thereof, methods and kits relating to same” (Feldan Bio Inc., priority 2016, dated 2025).

Ends that are not written are not given here.

In one data set the test system is NK-92 cells. Description: NKG2A gene inactivation by delivered CRISPR/Cpf1-NLS: PE anti-NKG2A immunolabelling, FACS. It counts as cell-based, Human. Particulars: FSD23 6 μM; Cpf1-NLS 1.5 μM; 90 sec; 48 h. Here is the method:
Genome editing was performed in NK-92 cells to evaluate whether inactivation of the endogenous NKG2A gene could increase the cytotoxicity of the NK-92 cells. Briefly, one million NK-92 cells were incubated with Cpf1-NLS (1.5 μM) gRNA complex targeting the NKG2A gene and with FSD23 (6 μM) for 90 sec. After transduction, cells were incubated in complete medium with IL-2 (20 ng/mL) for 48 h at 37° C. NK-92 cells were then immunolabelled with a phycoerythrin (PE)-labelled anti-NKG2A antibody (Miltenyi Biotec #CD159a) following the manufacturer recommendations. NK-92 cells were then analyzed with FACS and scored as a function of their anti-NKG2A detection (PE fluorescence) level and the results are shown in FIG. 57A. As controls, unlabelled wild-type NK-92 cells (“unlabelled WT cells”) had no antibody signal, and labelled wild-type NK-92 cells (“labelled WT cells”) had full immunolabelling signal.

In a further data set the test system is THP-1 cells. Description: Cleaved PARP ELISA assay after transduction of anti-Active Caspase 3 or anti-TNF antibody (± actinomycin D). Particulars: FSD23 7.5 μM, 5 min. It counts as cell-based, human. Here is the method: (§1) A monoclonal (mAb) and a polyclonal (pAb) anti-Active Caspase 3 antibodies […] were independently co-incubated with THP-1 and Jurkat cells for 5 min in the presence of FSD23 at 7.5 μM. The anti-apoptotic effect of each antibody was assessed via the level of Caspase 3-activated apoptosis with an ELISA cleaved PARP assay and quantified by spectrometry as described below.
(§2) The day of the experiment, cells in exponential growth phase were harvested, centrifugated (400g for 3 min) and resuspended in serum-free RPMI in a 96-well plate (500,000 cells in 150 μL per well). Cells were centrifugated and incubated for 5 min with a mix composed by the peptide to be tested (7.5 μM) and 2 μg of the antibody to be transduced. Cells were centrifuged and resuspended in RPMI with serum in a 24-well plate for 1 h at 37° C. Actinomycin D (2 μg/mL), a cytotoxic inducer of apoptosis, was incubated with the cells for 4 h. Cells were washed with cold PBS and tested using the PARP (Cleaved) [214/215]Human ELISA Kit (ThermoFisher) according to the manufacturer's instructions followed by spectroscopy analysis. […]
On the technique in general: An ELISA detects its analyte on a solid surface through an enzyme-linked reagent.

A further data set has as its system Jurkat cells. Described as above. Particulars: FSD23 7.5 μM, 5 min. It counts as cell-based, Human. Here is the method: as §1, §2
Data set [1] is described as follows: in vitro. The settings on record: human, HeLa cells.
Data set [2] is described as follows: in vitro. The settings on record: human, HeLa cells, Cell viability (%) (±St Dev.; n = 3).
The test system of data set [3] is HeLa cells. As to the kind of experiment: GFP-NLS protein transduction assay (flow cytometry: Pos cells %, viability %, relative fluorescence intensity; microscopy). Particulars: Table B2; HeLa cells, GFP-NLS cargo. Background: In flow cytometry, cells or beads pass a laser one at a time.
The test system of a further data set is B2M genomic DNA sequence. Description: T7E1 DNA cleavage assay / % INDELs after CRISPR/Cas9-NLS or CRISPR/Cpf1-NLS delivery (HeLa, THP-1, NK, T cells). Particulars: CRISPR/Cpf1 1.33 μM, crRNA 2 μM; THP-1 and NK cells; different concentrations and exposure times. It counts as cell-based, Human.
The subject of data set [4] is HeLa cells. As to the kind of experiment: Plasmid DNA (pEGFP-C1) transfection by peptides (% cells with GFP signal, cell viability). Particulars: DNA transfection in HeLa cells using peptides; pEGFP-C1 plasmid.

Usually viability stands for a read-out of living cells in per cent, often relative to untreated cells. Consider “HHHHHHLLKLWSRLLKEWTQGRRLEAKRAEAHHHHHH [FSD23]”, for which, in the data set on NK-92 cells, the “NKG2A receptor expression on the cell surface after genome editing” value is “two cell populations (peaks) were observed”. Also, the “transduction of functional anti-Active Caspase 3 antibodies (cleaved PARP, in words)” value with THP-1 cells and with Jurkat cells was “successfully transduced functional anti-Active Caspase 3 antibodies” throughout. In addition, the viability in the data set “in vitro [1]” turned out to be 98.2 ± 1.03%; in the data set “in vitro [2]”, 65.3 ± 5.44%. The “Mean % cells with GFP signal (±St. Dev.; n = 3)” value with HeLa cells [3] amounted to 50.34 ± 4.29%; with HeLa cells [4], 0.04 ± 0.00%. In addition, the “delivery of CRISPR/Cpf1 complex, cleavage of genomic B2M (in words)” value in the data set with B2M genomic DNA sequence is reported as “successful delivery of the CRISPR genome-editing complexes to the nucleus”.
